Experimental data published in article PMC2680940 (Biochemistry, 2009).

Key:
[1] = target: T1, 4-chlorobenzoate:CoA ligase (CBL) (Alcaligenes sp. AL3007, UniProt Q8GN86, D402A); assay: continuous spectrophotometric assay at […] nm, initial velocity; format: biochemical; conditions: 20 μM 4-CB, 10 mM CoA, 15 mM MgCl2, 50 mM K+HEPES pH 7.5, 25 °C
T1 sequence (Q8GN86 1-504 D402A): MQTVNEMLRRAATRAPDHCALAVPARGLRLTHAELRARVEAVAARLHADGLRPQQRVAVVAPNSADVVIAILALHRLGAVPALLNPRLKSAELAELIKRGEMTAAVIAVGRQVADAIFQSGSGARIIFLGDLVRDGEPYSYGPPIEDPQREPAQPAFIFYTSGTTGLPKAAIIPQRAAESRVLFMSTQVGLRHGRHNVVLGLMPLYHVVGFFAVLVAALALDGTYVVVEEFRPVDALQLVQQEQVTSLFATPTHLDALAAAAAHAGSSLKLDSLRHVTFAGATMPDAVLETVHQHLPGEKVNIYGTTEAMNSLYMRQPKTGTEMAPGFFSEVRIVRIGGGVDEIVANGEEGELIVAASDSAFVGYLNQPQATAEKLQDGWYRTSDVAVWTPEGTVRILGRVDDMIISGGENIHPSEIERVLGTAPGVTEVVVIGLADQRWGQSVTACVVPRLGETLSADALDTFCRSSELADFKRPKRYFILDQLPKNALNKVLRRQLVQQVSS

[2] = target: T2, 4-chlorobenzoate:CoA ligase (CBL) (Alcaligenes sp. AL3007, UniProt Q8GN86, D402P); assay: as above; format: biochemical; conditions: 20 μM 4-CB, 10 mM CoA, 15 mM MgCl2, 50 mM K+HEPES pH 7.5, 25 °C
T2 sequence (Q8GN86 1-504 D402P): T1 sequence (Q8GN86 1-504 D402A)

`Nc1ncnc2c1ncn2[C@@H]1O[C@H](COP(=O)(O)OP(=O)(O)OP(=O)(O)O)[C@@H](O)[C@H]1O` [ATP, adenosine-5′-triphosphate] showed a Km [1] of 28.1 ± 0.9 µM and a Km [2] of 13.1 ± 0.7 µM.
